Results reported in patent US10172358B2, “Thiopicolinamide compounds with fungicidal activity” (Dow AgroSciences LLC, priority 2016, dated 2019).
Where two headings read alike, the source gives them in different places.

Experiments:
Zymoseptoria tritici = assay: Fungicidal activity: leaf blotch of wheat (SEPTTR), disease control on wheat seedlings; format: in vivo, Zymoseptoria tritici on wheat plants (variety Yuma); conditions: low volume application, 121.5 g/H
Procedure: Evaluation of Fungicidal Activity: Leaf Blotch of Wheat (Zymoseptoria Tritici; Bayer Code […]) Technical grades of materials were dissolved in acetone, which were then mixed with nine volumes of water (H2O) containing 110 ppm Triton X-100. The fungicide solutions were applied onto wheat seedlings using an automated booth sprayer to run-off. All sprayed plants were allowed to air dry prior to further handling. All fungicides were evaluated using the aforementioned method for their activity vs. all target diseases, unless stated otherwise. Wheat leaf blotch and brown rust activity were also evaluated using track spray applications, in which case the fungicides were formulated as EC formulations, containing 0.1% Trycol 5941 in the spray solutions. Wheat plants (variety Yuma) were grown from seed in a greenhouse in 50% mineral soil/50% soil-less Metro mix until the first leaf was fully emerged, with 7-10 seedlings per pot. These plants were inoculated with an aqueous spore suspension of Zymoseptoria tritici either prior to or after fungicide treatments. After inoculation the plants were kept in 100% relative humidity (one day in a dark dew chamber followed by two to three days in a lighted dew chamber at 20° C.) to permit spores to germinate and infect the leaf. The plants were then transferred to a greenhouse set at 20° C. for disease to develop. When disease symptoms were fully expressed on the 1st leaves of untreated plants, infection levels were assessed on a scale of 0 to 100 percent disease severity. Percent disease control was calculated using the ratio of disease severity on treated plants relative to untreated plants.

Puccinia triticina = assay: Fungicidal activity: wheat brown rust (PUCCRT), disease control on wheat seedlings; format: in vivo, Puccinia triticina on wheat plants (variety Yuma); conditions: low volume application, 121.5 g/H
Procedure: Technical grades of materials were dissolved in acetone, which were then mixed with nine volumes of water (H2O) containing 110 ppm Triton X-100. The fungicide solutions were applied onto wheat seedlings using an automated booth sprayer to run-off. All sprayed plants were allowed to air dry prior to further handling. All fungicides were evaluated using the aforementioned method for their activity vs. all target diseases, unless stated otherwise. Wheat leaf blotch and brown rust activity were also evaluated using track spray applications, in which case the fungicides were formulated as EC formulations, containing 0.1% Trycol 5941 in the spray solutions. Evaluation of Fungicidal Activity: Wheat Brown Rust (Puccinia triticina; Synonym: Puccinia recondita f. Sp. Tritici; Bayer Code PUCCRT) Wheat plants (variety Yuma) were grown from seed in a greenhouse in 50% mineral soil/50% soil-less Metro mix until the first leaf was fully emerged, with 7-10 seedlings per pot. These plants were inoculated with an aqueous spore suspension of Puccinia triticina either prior to or after fungicide treatments. After inoculation the plants were kept in a dark dew room at 22° C. with 100% relative humidity overnight to permit spores to germinate and infect the leaf. The plants were then transferred to a greenhouse set at 24° C. for disease to develop. Fungicide formulation, application and disease assessment followed the procedures as described in the Example A. The results of the evalution are shown below in Table 4.

Phakopsora pachyrhizi = assay: Fungicidal activity: Asian soybean rust (PHAKPA), disease control on soybean seedlings; format: in vivo
Procedure: Evaluation of Fungicidal Activity: Asian Soybean Rust (Phakopsora Pachyrhizi; Bayer Code PHAKPA)
Technical grades of materials were dissolved in acetone, which were then mixed with nine volumes of H2O containing 0.011% Tween 20. The fungicide solutions were applied onto soybean seedlings using an automated booth sprayer to run-off. All sprayed plants were allowed to air dry prior to further handling.
Soybean plants (variety Williams 82) were grown in soil-less Metro mix, with one plant per pot. Two weeks old seedlings were used for testing. Plants were inoculated either 3 days prior to or 1 day after fungicide treatments. Plants were incubated for 24 h in a dark dew room at 22° C. and 100% relative humidity then transferred to a growth room at 23° C. for disease to develop. Disease severity was assessed on the sprayed leaves.

[1] = 24 h, 1 day protectant, read-out: SEPTTR 1DP disease control, LV activity at 121.5 g/H
[2] = 24 h, 1 day protectant, read-out: PUCCRT 1DP disease control, LV activity at 121.5 g/H
[3] = 72 h, 3 day curative, read-out: PUCCRT 3DC disease control, LV activity at 121.5 g/H
[4] = 72 h, 3 day curative, read-out: SEPTTR 3DC disease control, LV activity at 121.5 g/H
[5] = 24 h, 1 day protectant, read-out: PHAKPA 1DP disease control at 25 ppm
[6] = 72 h, 3 day curative, read-out: PHAKPA 3DC disease control at 25 ppm

Structure (SMILES)	pest or weed control at 121.5 g/ha (Zymoseptoria tritici; [1]) [%]	pest or weed control at 121.5 g/ha (Puccinia triticina; [2]) [%]	pest or weed control at 121.5 g/ha (Puccinia triticina; [3]) [%]	pest or weed control at 121.5 g/ha (Zymoseptoria tritici; [4]) [%]	pest or weed control at 25 ppm (Phakopsora pachyrhizi; [5]) [%]	pest or weed control at 25 ppm (Phakopsora pachyrhizi; [6]) [%]
COc1ccnc(C(=S)N[C@H](C)C(=O)O[C@@H](C)C(c2ccc(F)cc2)c2ccc(F)cc2)c1OC(C)=O [Compound 59]	> 80	≤ 80	≤ 80			
C=CC[C@@H](Oc1ccccc1)[C@H](C)OC(=O)[C@H](C)NC(=S)c1nccc(OC)c1OC(C)=O [Compound 60]	≤ 80	> 80	> 80	≤ 80		
COc1ccnc(C(=S)N[C@@H](C)C(=O)O[C@H](C(C)C)[C@H](C)Oc2ccccc2)c1OC(C)=O [Compound 61]	≤ 80	> 80	> 80	> 80	> 80	> 80
CCC[C@@H](Oc1ccc(C)cc1)[C@H](C)OC(=O)[C@H](C)NC(=S)c1nccc(OC)c1OC(C)=O [Compound 62]	≤ 80	> 80	> 80		≤ 80	≤ 80
COc1ccnc(C(=S)N[C@@H](C)C(=O)O[C@@H](C)C(c2ccc(F)cc2F)c2ccc(F)cc2F)c1OC(C)=O [Compound 63]	> 80	> 80	≤ 80	> 80	> 80	≤ 80
COc1ccnc(C(=S)N[C@@H](C)C(=O)O[C@@H](C)[C@@H](c2ccc(F)cc2)c2ccc(F)cc2C)c1OC(C)=O [Compound 64]	> 80	> 80	≤ 80	> 80	> 80	> 80
COc1cc(C)ccc1C(c1ccc(C)cc1OC)[C@H](C)OC(=O)[C@H](C)NC(=S)c1nccc(OC)c1OC(C)=O [Compound 65]	> 80	> 80	> 80	> 80	> 80	≤ 80
CC[C@H](OC(=O)[C@H](C)NC(=S)c1nccc(OC)c1OC(C)=O)[C@@H](C)Oc1ccccc1 [Compound 66]		≤ 80	≤ 80		≤ 80	≤ 80
COc1cc(F)ccc1C(c1ccc(F)cc1OC)[C@H](C)OC(=O)[C@H](C)NC(=S)c1nccc(OC)c1OC(C)=O [Compound 67]	> 80	> 80	≤ 80	> 80	> 80	≤ 80
COc1ccnc(C(=S)N[C@H](C)C(=O)O[C@H](C)C(c2ccc(F)cc2)c2ccc(F)cc2)c1OC(C)=O [Compound 68]	≤ 80		≤ 80		≤ 80	
COc1ccnc(C(=S)N[C@@H](C)C(=O)O[C@@H](C(C)C)[C@@H](C)Oc2ccccc2)c1OC(C)=O [Compound 69]		≤ 80	≤ 80	≤ 80	≤ 80	
COc1cc(F)ccc1[C@@H](c1ccc(F)cc1)[C@H](C)OC(=O)[C@H](C)NC(=S)c1nccc(OC)c1OC(C)=O [Compound 70]	> 80	> 80	> 80	> 80	> 80	≤ 80
CCC[C@H](OC(=O)[C@H](C)NC(=S)c1nccc(OC)c1OC(C)=O)[C@@H](C)Oc1ccccc1 [Compound 76]					≤ 80	
